Test results: ChEMBL document CHEMBL5727960, “Wee-1 inhibiting pyrazolopyrimidinone compounds” (2020)
pIC50: −log10 of the molar value.

Target: Wee1-like protein kinase (Homo sapiens, UniProt P30291)
Assay: Kinase Activity Assay: All reactions took place in 60 μL volumes in reaction buffer containing 40 mM Tris-HCl and 20 mM magnesium chloride, supplemented with 0.1 mg/mL bovine serum albumin and 2 mM DTT. Compounds were serially diluted in buffer and 5 μL of each concentration pipetted into a white 384 well plate (Sigma Aldrich M6186). A 5 μL aliquot of the Wee-1 enzyme was added to each well and the plate centrifuged for 1 min to ensure mixing of the enzyme and inhibitor. The plate was incubated at room temperature for 30 minutes before the addition of 2.0 μg/mL of substrate and 30 μM ATP in a 5 μL aliquot. The plate was centrifuged for one minute and incubated for 1 h at RT. 15 μL of ADP-Glo stop reagent was added to each well to quench the reaction and deplete unconverted ATP. The plate was incubated for a further 40 min in the dark at RT. 30 μL of ADP-Glo kinase detection reagent was added to each well, converting ADP to ATP, […]. The plate was shaken for 1 min, and incubated in the dark for an additional hour.

Chain of Wee1-like protein kinase (P30291 whole entry): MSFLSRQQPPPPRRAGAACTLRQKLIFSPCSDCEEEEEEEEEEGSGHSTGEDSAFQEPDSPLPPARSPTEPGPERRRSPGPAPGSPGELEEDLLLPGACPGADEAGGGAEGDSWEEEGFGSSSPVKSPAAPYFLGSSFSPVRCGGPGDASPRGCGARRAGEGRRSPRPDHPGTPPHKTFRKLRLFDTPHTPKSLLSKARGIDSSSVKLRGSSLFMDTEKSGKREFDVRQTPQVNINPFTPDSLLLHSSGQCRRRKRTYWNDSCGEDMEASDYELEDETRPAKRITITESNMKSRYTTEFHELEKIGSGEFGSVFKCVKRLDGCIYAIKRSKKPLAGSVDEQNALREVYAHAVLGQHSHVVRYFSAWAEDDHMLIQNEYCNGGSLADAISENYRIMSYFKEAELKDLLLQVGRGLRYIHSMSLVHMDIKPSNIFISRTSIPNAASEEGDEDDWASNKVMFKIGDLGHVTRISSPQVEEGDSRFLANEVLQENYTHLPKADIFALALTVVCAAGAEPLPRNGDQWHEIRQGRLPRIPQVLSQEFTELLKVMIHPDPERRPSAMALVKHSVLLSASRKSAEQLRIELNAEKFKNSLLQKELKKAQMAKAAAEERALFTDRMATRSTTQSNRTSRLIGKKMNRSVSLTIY

pIC50: 9.10
SMILES: C=CCn1c(=O)c2cnc(Nc3ccc(N4CCOCC4)nc3)nc2n1-c1cccc(N=S(C)(C)=O)n1
